Values joined by “and” are separate entries in the source; they are usually repeats but may differ in a detail not shown here. Equal values may be shown once.

The record followed here is BindingDB's records for doi:10.1124/jpet.105.089839 (F. Hoffmann-La Roche, 2005).

Experiment [1] concerns the target Metabotropic glutamate receptor 5 (Rattus norvegicus, UniProt P31424).
Experiment [2] addresses Metabotropic glutamate receptor 5 (Homo sapiens, UniProt P41594).

Sequence of Metabotropic glutamate receptor 5 (Rattus norvegicus, UniProt P31424) (P31424 whole entry): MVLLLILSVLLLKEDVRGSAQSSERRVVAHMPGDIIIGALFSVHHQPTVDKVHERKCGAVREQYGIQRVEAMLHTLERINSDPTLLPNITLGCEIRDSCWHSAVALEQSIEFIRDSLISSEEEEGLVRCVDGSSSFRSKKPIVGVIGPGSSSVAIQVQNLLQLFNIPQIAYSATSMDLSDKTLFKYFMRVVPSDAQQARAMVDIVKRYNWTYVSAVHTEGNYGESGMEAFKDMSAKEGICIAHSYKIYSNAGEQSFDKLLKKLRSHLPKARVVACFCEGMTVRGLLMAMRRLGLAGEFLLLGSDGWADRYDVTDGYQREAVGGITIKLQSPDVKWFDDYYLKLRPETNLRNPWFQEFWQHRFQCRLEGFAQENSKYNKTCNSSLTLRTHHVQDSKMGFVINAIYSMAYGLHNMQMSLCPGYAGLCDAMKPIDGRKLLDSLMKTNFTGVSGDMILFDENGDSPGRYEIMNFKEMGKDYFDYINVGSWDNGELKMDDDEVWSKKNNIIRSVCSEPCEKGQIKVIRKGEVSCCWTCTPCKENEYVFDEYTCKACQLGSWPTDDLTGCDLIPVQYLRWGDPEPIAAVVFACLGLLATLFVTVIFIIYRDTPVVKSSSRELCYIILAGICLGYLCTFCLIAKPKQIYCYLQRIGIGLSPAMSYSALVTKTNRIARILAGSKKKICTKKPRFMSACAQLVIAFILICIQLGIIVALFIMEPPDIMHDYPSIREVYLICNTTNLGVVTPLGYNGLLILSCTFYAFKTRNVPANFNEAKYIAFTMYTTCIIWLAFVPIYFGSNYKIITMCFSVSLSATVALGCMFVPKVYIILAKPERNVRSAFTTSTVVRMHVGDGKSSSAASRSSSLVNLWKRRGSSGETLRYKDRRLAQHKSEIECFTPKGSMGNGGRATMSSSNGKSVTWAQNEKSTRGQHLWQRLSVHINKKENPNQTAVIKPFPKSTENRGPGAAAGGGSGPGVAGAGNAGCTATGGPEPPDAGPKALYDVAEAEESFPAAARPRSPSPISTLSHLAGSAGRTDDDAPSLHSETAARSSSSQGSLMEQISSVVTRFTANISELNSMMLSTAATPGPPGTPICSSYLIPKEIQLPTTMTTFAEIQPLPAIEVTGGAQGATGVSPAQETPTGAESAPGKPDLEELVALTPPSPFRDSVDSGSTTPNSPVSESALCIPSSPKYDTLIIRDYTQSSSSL
Sequence of Metabotropic glutamate receptor 5 (Homo sapiens, UniProt P41594) (P41594 whole entry): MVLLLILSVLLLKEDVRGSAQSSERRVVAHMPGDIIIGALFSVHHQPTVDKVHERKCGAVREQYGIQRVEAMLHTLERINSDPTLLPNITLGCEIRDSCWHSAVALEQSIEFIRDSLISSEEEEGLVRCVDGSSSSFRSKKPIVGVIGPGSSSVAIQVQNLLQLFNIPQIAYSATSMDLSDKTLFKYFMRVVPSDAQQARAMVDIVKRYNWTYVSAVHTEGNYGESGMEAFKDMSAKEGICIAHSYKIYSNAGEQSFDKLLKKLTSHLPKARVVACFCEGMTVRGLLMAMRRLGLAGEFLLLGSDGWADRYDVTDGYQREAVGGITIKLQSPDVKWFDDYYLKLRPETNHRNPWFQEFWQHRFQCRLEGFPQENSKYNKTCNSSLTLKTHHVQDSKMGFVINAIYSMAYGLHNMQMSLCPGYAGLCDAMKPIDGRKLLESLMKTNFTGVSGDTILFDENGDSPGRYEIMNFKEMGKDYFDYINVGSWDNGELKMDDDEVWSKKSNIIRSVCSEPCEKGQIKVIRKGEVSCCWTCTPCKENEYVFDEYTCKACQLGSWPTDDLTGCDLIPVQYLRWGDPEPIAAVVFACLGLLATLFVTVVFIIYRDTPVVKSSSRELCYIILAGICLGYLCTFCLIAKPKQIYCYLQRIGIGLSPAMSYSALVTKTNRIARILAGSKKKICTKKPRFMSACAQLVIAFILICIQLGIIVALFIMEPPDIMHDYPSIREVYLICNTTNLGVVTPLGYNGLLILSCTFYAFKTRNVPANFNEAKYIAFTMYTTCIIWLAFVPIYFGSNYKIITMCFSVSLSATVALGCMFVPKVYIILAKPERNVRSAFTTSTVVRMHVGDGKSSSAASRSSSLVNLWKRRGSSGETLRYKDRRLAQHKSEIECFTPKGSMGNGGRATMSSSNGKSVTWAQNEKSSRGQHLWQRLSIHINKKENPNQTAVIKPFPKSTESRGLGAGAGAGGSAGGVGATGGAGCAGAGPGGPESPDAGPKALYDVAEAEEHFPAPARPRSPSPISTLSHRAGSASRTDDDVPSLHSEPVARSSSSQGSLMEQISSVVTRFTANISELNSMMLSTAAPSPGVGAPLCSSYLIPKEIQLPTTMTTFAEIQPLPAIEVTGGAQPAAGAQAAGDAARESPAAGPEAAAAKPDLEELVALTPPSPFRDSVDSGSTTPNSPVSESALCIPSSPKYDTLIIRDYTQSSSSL

For `Cc1ccc(O)c(N=Nc2ccccc2)n1` [CAS_5218788], the Ki in experiment [1] was 486 nM and 346 nM; in experiment [2], 357 nM and 328 nM and 1100 nM.
For the molecule `Cc1cccc(C=Cc2ccccc2)n1` [CAS_5311432], the Ki was 423 nM and 243 nM in experiment [1]; 334 nM and 219 nM and 800 nM in experiment [2].
On to `N[C@@H](Cn1oc(=O)[nH]c1=O)C(=O)O` [NSC_40539], for which the inhibition constant Ki in experiment [1] and in experiment [2] was above 10000 nM each time.
As to `Cn1cc(O)nc1NC(=O)Nc1cccc(Cl)c1` [NSC_216215], the Ki in experiment [1] was 56.3 nM and 50.8 nM; in experiment [2] it was 40.8 nM and 53 nM and 58 nM.

What is called Ki is the dissociation constant of the complex between target and ligand, obtained from inhibition or displacement.
